What was measured:
U251 glioma cells = assay: Combination index with chemotherapy drugs, U251; type: cell-based
Method: Effects of combination of COH-SR4 and a chemotherapy drug such as TMZ, SN38, CPT-11, and 5-FU were studied by combination index (CI) theorem and plot using the method described in Chou (“Experimental Design, and Computerized Simulation of Synergism and Antagonism in Drug Combination Studies,” Pharmacological Reviews, Vol. 58, No. 3), which is incorporated herein by reference in its entirety.
COH-SR4 and a chemotherapy drug (TMZ, SN38, CPT-11, or 5-FU) were dissolved in DMSO individually, and then diluted to the appropriate concentration in the same cell culture media before applying to cells of each cell line. After 4 days, the amount of ATP present in the cell lysates were assessed using Progema's CellGlo kit. The CI of each combination of COH-SR4 and the chemotherapy drug was calculated and plotted against the concentration of COH-SR4 for each concentration of the chemotherapy drug used.

[1] = test system: B16-F0 mouse and A2058 human melanoma cells; assay: Cell cycle FACS analysis, melanoma; type: cell-based; details: 18 h
Method: 2×10^5 cells were treated with COH-SR4 (0 μM, 5 μM or 10 μM) for 18 h at 37° C. After treatment, floating and adherent cells were collected, washed with PBS, and fixed with 70% ethanol. On the day of flow analysis, cell suspensions were centrifuged; counted and same numbers of cells were resuspended in 500 μL PBS in flow cytometry tubes. Cells were then incubated with 2.5 μL of RNase (stock 20 mg/mL) at 37° C. for 30 min after which they were treated with 10 μL of propidium iodide (stock 1 mg/mL) solution and then incubated at room temperature for 30 min in the dark. The stained cells were analyzed using the Beckman Coulter Cytomics FC500, Flow Cytometry Analyzer. Results were processed using CXP2.2 analysis software from Beckman Coulter.

hepatic genes = assay: Liver gene expression of HFD obese and db/db mice; type: in vivo, mouse; details: RT-PCR and RNA-seq
Description: Total RNA was isolated from livers of lean, vehicle or COH-SR4-treated HFD mice using standard protocols and subjected to quantitative RT-PCR using primers for key genes associated with lipid and fatty acid synthesis (Acaca, Pparg, Acly, Scd1, Srebf1, Hmgcr, Cpt1, Fasn) and gluconeogenesis (G6pc, Pck1). Livers of db/+ and db/db mice treated with vehicle or COH-SR4 were used for RNA-seq analysis. RNA isolation, purification, sequencing, library preparation and read alignments were done at the City of Hope Functional Genomics Core facility. Differential gene expression was identified from standard Partek workflow (Partek Genomics Suite v6.6, Partek, Inc) using ANOVA, with step-up FDR multiple testing correction p-value of <0.05 and 1.5× fold change. […] Databases utilized included GOTERM_BP_FAT (biological process) and Kyoto Encyclopedia of Genes and Genomes (KEGG_PATHWAY).
Total RNA was isolated from liver of control animals and HFD obese or db/db mice treated with vehicle or COH-SR4 (as described in Example 35). Relative mRNA expression (mean±SEM) of lipogenic and gluconeogenic genes were determined using real time RT-PCR and quantified using the comparative Ct method (FIG. 86A, ^#P<0.05, ^##P<0.01 vs. HFD). […] Key hepatic genes associated with lipid/fatty acid synthesis and glucose and amino acid metabolism regulated by COH-SR4 in db/db mice are shown in FIG. 86D.

PBT-017 glioma cells = assay: Apoptosis of PBT-017 glioma cells, cell counts; type: cell-based; details: 2 or 10 μM, 4 days
Method: PBT-017 glioma cells were incubated with nothing (control), DMSO, and COH-SR4 at 2 μM or 10 μM for 4 days.

[2] = test system: CD133 sorted PBT-017 glioma cells; assay: Killing of CD133 sorted PBT-017 glioma cells; type: cell-based; details: 0-100 μM, 4 days
Method: CD133 positive glioma stem cells were sorted by FACS. Unsorted cells, CD133 positive cells, and CD133 negative PBT-017 glioma cells were treated with COH-SR4 at various concentrations (0˜100 μM) for 4 days, respectively. Data were represented as a ratio to untreated control, and plotted as mean±SEM (n=12) obtained from 2˜3 experiments (FIG. 39A).

AMPK, ACC, Raptor, TSC2 = assay: AMPK-mTOR signaling in lung cancer cells, Western-blot; type: cell-based, human
Method: Cell or tissue proteins were extracted with cell lysis buffer (Cell Signaling Technology) and protein concentration was determined using the DC Protein Assay kit (Bio-Rad, Hercules, Calif., USA). Equal amount of proteins (˜40 μg) were loaded onto 4-15% Criterion TGX gels (Bio-Rad, Hercules, Calif.), resolved by SDS-PAGE electrophoresis, and then transferred onto nitrocellulose membranes for immunoblotting. Membranes were blocked with 5% skimmed milk in Tris-buffered saline containing 0.05% Tween 20 before incubation overnight at 4° C. with desired primary antibodies. Immuno-reactive proteins were visualized by peroxidase-labeled secondary antibodies and ECL system (Western Lightning Chemiluminescence Reagent, Perkin-Elmer, Mass., USA). Equal loading of proteins was confirmed by stripping and re-probing the membranes with either β-actin or GAPDH antibodies. Band intensities were quantified using a densitometer (Quantity One, Bio-Rad, Hercules, Calif.).
AMPK was knocked down by siRNA and assessed the impact on COH-SR4-induced cytotoxicity. […] Thus, the in-vitro analyses of critical signaling proteins of cell proliferation further supported the anti-cancer effects of COH-SR4 in lung cancer cells.

## O=C(Nc1cc(Cl)cc(Cl)c1)Nc1cc(Cl)cc(Cl)c1 [COH-SR4, 1,3-bis(3,5-dichlorophenyl) urea]
U251 glioma cells; COH-SR4 <0.5 μM + CPT-11 <0.125 μM
  combination effect (CI) with CPT-11: Synergism
U251 glioma cells; COH-SR4 <0.5 μM + SN-38 <0.001 μM
  combination effect (CI) with SN-38: Synergism
U251 glioma cells; COH-SR4 <0.5 μM + TMZ 12.5 μM, 4 days
  combination effect (CI) with TMZ: Synergism
U251 glioma cells; COH-SR4 >0.5 μM + SN-38 <0.003 μM
  combination effect (CI) with SN-38: Additive effects
U251 glioma cells; COH-SR4 >0.65 μM + TMZ 100 μM
  combination effect (CI) with TMZ: Additive effects
U251 glioma cells; COH-SR4 >0.675 μM + CPT-11 >0.5 μM
  combination effect (CI) with CPT-11: Additive effects
[1]
  cells accumulated in G2 phase (G2/M phase arrest): ~50%
Hepatic genes
  hepatic pathways affected: downregulated hepatic lipogenesis and glucose metabolic pathways, while upregulating amino acid metabolism
PBT-017 glioma cells
  fraction of apoptotic cells: increased the fraction of apoptotic cells
[2]
  killing of CD133 positive, negative and unsorted cells: effective in killing the CD133 positive glioma stem cells
AMPK, ACC, Raptor, TSC2
  phosphorylation of AMPK, ACC, Raptor, TSC2: increased phosphorylation of AMPK (pAMPK)
